Consider eleven compounds from PubChem BioAssay (NCI).

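In this assay, cells in 96-well plates receive the compound at five concentrations for 48 hours. Endpoints are linearly interpolated between the surrounding concentrations. GI50: concentration for 50% inhibition of growth. TGI: total growth inhibition.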

Experiment in all cases: DTP human tumour cell line panel, 48 h
For test [1], the system named is ACHN renal.
Test [2] deals with CCRF-CEM leukemia.
Test [3] deals with COLO 205 colon.
The subject of test [4] is EKVX NSCLC.
The subject of test [5] is HT29 colon.
Test [6] concerns NCI-H23 lung.
Test [7] has as its system NCI-H522 lung.
The subject of test [8] is RPMI-8226 leukemia.
Test [9] relates to SF-268 CNS.
Test [10] has as its system SW-620 colon.
Test [11] deals with NCI/ADR-RES ovarian.

One may read the TGI as the concentration at which net growth stops. A low value points to more potent growth arrest. On to `CN1C(=O)CN2C(Cl)(Cl)C2(c2ccccc2F)c2cc([N+](=O)[O-])ccc21` (centres undefined), for which the TGI in test [1], in test [2], in test [3], in test [4], in [5] and in test [6] was above 100 µM in each case. In addition, the TGI in [7], in test [8], in [9] and in [10] was above 100 µM in each case.

On to `CC(C)OC(=O)Nc1cccc(Cl)c1`, for which the TGI in test [1], in [2], in test [3], in test [4], in test [5] and in [6] was above 100 µM each time. In addition, the TGI in test [11], in test [8], in test [9] and in [10] was above 100 µM throughout.

Regarding `COc1ccc(CC2c3cc(OC)c(OC)c(OC)c3CC[N+]2(C)C)cc1Oc1ccc(CC2c3cc4c(c(OC)c3CC[N+]2(C)C)OCO4)cc1` (centres undefined), the TGI in test [1], in test [2], in test [3], in test [4], in [5] and in [6] was above 100 µM in each case. The TGI in test [7], in [11], in test [9] and in test [10] was above 100 µM in each case.

As for `Nc1nc(Cl)cc(NCCCNc2cc(Cl)nc(N)n2)n1`, the TGI in [2], in test [3], in test [4], in [5], in [6] and in [8] was above 100 µM throughout. The concentration for total growth inhibition (TGI) in test [9] and in [10] was above 100 µM throughout.

In general, GI50 refers to the concentration giving 50% growth inhibition. On to `Cn1cc(-c2csc(-c3cn(C)c4ccc(Br)cc34)n2)c2cnccc21`, for which the GI50 is 1970 nM in [1]; 1860 nM in test [4]; 1600 nM in test [5]; 1930 nM in test [6]; 1760 nM in [7]; 2070 nM in [11]. Besides, the GI50 in [9] is 1900 nM; in [10] it was 1850 nM. Besides, the TGI in [1] was found to be 3.4 µM; in test [4], 3.48 µM; in [5], 3.09 µM; in test [6], 3.65 µM; in test [7] it was 3.44 µM; in test [11], 3.91 µM. Moreover, the figures for the TGI in [9] and in [10] were 3.67 µM and 3.48 µM, respectively.

As for `CC(N)C(=O)OCN1C(=O)C2C3C=CC(C2C1=O)C1C2C(=O)N(COC(=O)C(C)N)C(=O)C2C31` (centres undefined), the concentration for total growth inhibition (TGI) in [1] is 70.4 µM; in test [2], 67.2 µM; in test [3] it was 35.1 µM; in [4] it was above 100 µM; in test [5], above 100 µM; in test [6], 43.2 µM. For the same compound, the results for the TGI in test [8], in test [9] and in [10] were 54.9 µM, 47.9 µM and 47.4 µM, respectively.

`NC(=O)c1ccc(NS(=O)(=O)c2ccc(N)cc2)nc1`: the TGI in [1], in [2], in test [3], in test [4], in [5] and in test [6] was above 100 µM throughout. Also, the TGI in test [11], in test [8], in test [9] and in [10] was above 100 µM throughout.

On to `COC(=O)C(=O)C(C(=O)C1=NS(=O)(=O)c2cc(S(N)(=O)=O)c(Cl)cc2N1)c1nc2ccc(C(=O)c3ccccc3)cc2[nH]c1=O` (centres undefined), for which the TGI in test [1], in [2], in test [3], in test [4], in test [5] and in test [6] was above 100 µM each time. Also, the TGI in test [7], in test [8], in [9] and in test [10] was above 100 µM each time.

On to `Cc1cccc(O)c1-c1nnc(CCCCCCCCc2nnc(-c3c(C)cccc3O)n2N)n1N`, for which the TGI was above 100 µM in [1]; 37.1 µM in test [2]; above 31.6 µM in [3]; above 100 µM in test [4]; above 100 µM in test [5]; above 100 µM in test [6]. The TGI was 97.2 µM in [7], above 100 µM in [8], above 100 µM in test [9] and above 100 µM in test [10].

Take `Cc1ccc(S(=O)(=O)N2c3ccccc3[C@H]3CCc4c([nH]c5ccccc45)[C@H]32)cc1`: the concentration for total growth inhibition (TGI) in test [1], in [2], in test [3], in test [4], in test [5] and in [6] was above 100 µM each time. Moreover, the total growth inhibition concentration (TGI) in test [11], in test [8], in test [9] and in [10] was above 100 µM each time.

With `c1ccc(CSC2(SCc3ccccc3)CCCC2)cc1`, the TGI in [1], in test [2], in test [3], in test [4], in [5] and in [6] was above 10 µM in each case. Also, the TGI in test [7], in [11], in [8], in test [9] and in [10] was above 10 µM each time.
